Assays:
Human plasmin = biological target: T1, Human plasmin (Homo sapiens, UniProt P00747); assay: Serine protease inhibition, plasmin (chromogenic substrate), Kass; assay type: biochemical; details: substrate H-D-Val-Leu-Lys-p-nitroanilide
T1 construct: Human plasmin is purchased from Boehringer Mannheim, Indianapolis, Ind; purchased Boehringer Mannheim, Indianapolis, Ind
Procedure: (§1) The assay is carried out by mixing 50 μl buffer (0.03M Tris, 0.15M NaCl, pH 7.4), 25 μl of human thrombin solution (purified human thrombin Enzyme Research Laboratories, South Bend, Ind.) at 8 NIH units/ml and 25 μl of test compound in a solvent (50% aqueous methanol (v:v)). Then 150 μl of an aqueous solution of the chromogenic substrate (at 0.25 mg/ml) are added and the rates of hydrolysis of the substrate are measured by monitoring the reactions at 405 nm for the release of p-nitroaniline. Standard curves are constructed by plotting free thrombin concentration against hydrolysis rate. The hydrolysis rates observed with test compounds are then converted to "free thrombin" values in the respective assays by use of the standard curves. The bound thrombin (bound to test compound) is calculated by subtracting the amount of free thrombin observed in each assay from the known initial amount of thrombin used in the assay. The amount of free inhibitor in each assay is calculated by subtracting the number of moles of bound thrombin from the number of moles of added inhibitor (test compound).
(§2) Kass is calculated for a range of concentrations of test compounds and the mean value is reported in units of liter per mole.
(§3) By substantially following the procedures described above for human thrombin, and using other human blood coagulation system serine proteases, and using fibrinolytic system serine proteases, with the appropriate chromogenic substrate, identified below, selectivity of the compounds of the present invention with respect to the coagulation factor serine proteases and to the fibrinolytic serine proteases are evaluated as well as their substantial lack of interference with human plasma clot fibrinolysis.
(§4) Human factors X, Xa, IXa, XIa, and xIIa are purchased from Enzyme Research Laboratories, South Bend, Ind.; human urokinase from Leo Pharmaceuticals, Denmark; and recombinant activated Protein C (aPC) is prepared at Eli Lilly and Co. substantially according to U.S. Pat. No. 4,981,952 incorporated by reference herein in its entirety. Chromogenic substrates: N-Benzoyl-Ile-Glu-Gly-Arg-p-nitroanilide (for factor Xa); N-Cbz-D-Arg-Gly-Arg-p-nitroanilide (for factor IXa assay as the factor Xa substrate) pyroglutamyl-Pro-Arg-p-nitroanilide (for factor XIa and for aPC); H-D-Pro-Phe-Arg-p-nitroanilide (for factor XIIa); and pyroglutamyl-Gly-Arg-p-nitroanilide (for urokinase); are purchased from KabiVitrum, Stockholm, Sweden, or from Midwest Biotech, Fishers, Indiana. Bovine trypsin is purchased from Worthington Biochemicals, Freehold, N.J., and human plasma kallikrein from Kabi Vitrum, Stockholm, Sweden. N-Benzoyl-Phe-Val-Arg-p-nitroanilide, the substrate for human thrombin and for trypsin, is synthesized according to procedures described above for the compounds of the present invention, known methods of peptide coupling from commercially available reactants, or was purchased from Midwest Biotech, Fishers, Ind. Human plasmin is purchased from Boehringer Mannheim, Indianapolis, Ind.; nt-PA is purchased as single chain activity reference from American Diagnostics, Greenwich, Conn.; modified-t-PA6 (mt-PA6) is prepared at Eli Lilly and Company by procedure known in the art (See, Burck, et al., J. Biol. Chem., 265, […] (1990). Plasmin chromogenic substrate H-D-Val-Leu-Lys-p-nitroanilide and tissue plasminegen activator (t-PA) substrate H-D-Ile-Pro-Arg-p-nitroanilide are purchased from Kabi Vitrum, Stockholm, Sweden.

factor Xa = biological target: T2, factor Xa (Homo sapiens, UniProt P00742); assay: Serine protease inhibition, factor Xa (chromogenic substrate), Kass; assay type: biochemical; details: substrate N-Benzoyl-Ile-Glu-Gly-Arg-p-nitroanilide
T2 construct: Human factors X, Xa, IXa, XIa, and xIIa are purchased from Enzyme Research Laboratories; purchased Enzyme Research Laboratories, South Bend, Ind
Procedure: as §1, §2, §3, §4

[1] = Index of bioavailability (plasma TT AUC, p.o. vs i.v.); details: rats, adjusted for dose
Procedure: Male Sprague Dawley rats (350-425 gm, Harlan Sprague Dawley Inc., Indianapolis, Ind.) are anesthetized with xylazine (20 mg/kg, s.c.) and ketamine (120 mg/kg, s.c.) and maintained on a heated water blanket (37° C.). The jugular vein(s) is cannulated to allow for infusions.
Plasma thrombin time (TT) and activated partial thromboplastin time (APTT) are measured with a fibrometer. Blood is sampled from a jugular catheter and collected in syringe containing sodium citrate (3.8%, 1 part to 9 parts blood). To measure TT, rat plasma (0.1 ml) is mixed with saline (0.1 ml) and bovine thrombin (0.1 ml, 30 U/ml in TRIS buffer; Parke Davis) at 37° C. For APTT, plasma (0.1 ml) and APTT solution (0.1 ml, Organon Teknika are incubated for 5 minutes (37° C.) and CaCl2 (0.01 ml, 0,025M) is added to start coagulation. Assays are done in duplicate and averaged.
The time course of the effect of the thrombin inhibitor upon TT is determined after i.v bolus administration to anesthetized rats and after oral treatment of fasted conscious rats. Due to limitations of blood volume and the number of points required to determine the time course from time of treatment to the time when the response returns to pretreatment values, two populations of rats are used. Each sample population represents alternating sequential time points. The average TT over the time course is used to calculate area under the curve (AUC). The index of bioavailability is calculated by the formula shown below and is expressed as percent relative activity.
The area under the curve (AUC) of the plasma TT time course is determined and adjusted for the dose. This index of bioavailability is termed "% Relative Activity" and is calculated as [formula]
Compound solutions are prepared fresh daily in normal saline and are injected as a bolus or are infused starting 15 min before and continuing throughout the experimental perturbation which is 15 minutes in the arteriovenous shunt model and 60 minutes in the FeCl3 model of arterial injury and in the spontaneous thrombolysis model. Bolus injection volume is 1 ml/kg for i.v., and 5 ml/kg for p.o. and infusion volume is 3 ml/hr.

human thrombin = biological target: T3, human thrombin (Homo sapiens, UniProt P00734); assay: Inhibition of amidase activity of thrombin (chromogenic substrate), Kass; assay type: biochemical; details: substrate N-benzoyl-Phe-Val-Arg-p-nitroanilide, pH 7.4
T3 construct: purified human thrombin Enzyme Research Laboratories, South Bend, Ind; purchased Enzyme Research Laboratories, South Bend, Ind
Procedure: as §1
The Kass value is the hypothetical equilibrium constant for the reaction between thrombin and the test compound (I). [drawing 53]
as §2

Human Plasma [2] = assay: Anticoagulation in human plasma, activated partial thromboplastin time (APTT); assay type: biochemical; details: concentration required to double the APTT
Procedure: (§5) Dog plasma and rat plasma are obtained from conscious mixed-breed hounds (either sex, Hazelton-LRE, Kalamazoo, Mich., U.S.A.) or from anesthetized male Sprague-Dawley rats (Harlan Sprague-Dawley, Inc., Indianapolis, Ind., U.S.A.) by venipuncture into 3.8 percent citrate. Fibrinogen is prepared from in-date ACD human blood as the fraction I-2 according to previous procedures and specifications. Smith, Biochem. Chem. […] Human fibrinogen is also purchased as 98 percent pure/plasmin free from American Diagnostics, Greenwich, Conn. Coagulation reagents ACTIN, Thromboplastin, and Human plasma are from Baxter Healthcare Corp., Dade Division, Miami, Fla. Bovine thrombin from Parke-Davis (Ann Arbor, Mich.) is used for coagulation assays in plasma. Coagulation assay procedures are as previously described. Smith, et al., Thrombosis Research, 5, 163-174 (1988). A CoAScreener coagulation instrument (American LABor, Inc.) is used for all coagulation assay measurements. The prothrombin time (PT) is measured by adding 0.05 ml saline and 0.05 ml Thromboplastin-C reagent to 0.05 ml test plasma. The activated partial thromboplastin time (APTT) is measured by incubation of 0.05 ml test plasma with 0.05 ml Actin reagent for 120 seconds followed by 0.05 ml CaCl2 (0.02M). […] The compounds of formula I are added to human or animal plasma over a wide range of concentrations to determine prolongation effects on the APTT, PT, and TT assays. Linear extrapolations are performed to estimate the concentrations required to double the clotting time for each assay.

Bovine trypsin = biological target: T4, Bovine trypsin (Bos taurus, UniProt P00760); assay: Serine protease inhibition, trypsin (chromogenic substrate), Kass; assay type: biochemical; details: substrate N-Benzoyl-Phe-Val-Arg-p-nitroanilide
T4 construct: Bovine trypsin is purchased from Worthington Biochemicals, Freehold, N.J; purchased Worthington Biochemicals, Freehold, N.J
T4 sequence (P00760 24-246): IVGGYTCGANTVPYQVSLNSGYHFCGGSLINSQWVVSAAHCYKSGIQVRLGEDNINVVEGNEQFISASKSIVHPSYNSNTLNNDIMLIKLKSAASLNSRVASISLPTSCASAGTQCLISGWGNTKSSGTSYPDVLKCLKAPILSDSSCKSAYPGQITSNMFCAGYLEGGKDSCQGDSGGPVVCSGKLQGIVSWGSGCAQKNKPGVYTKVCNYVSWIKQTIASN
Procedure: as §1, §2, §3, §4

[3] = biological target: T5, tissue plasminogen activator (t-PA) (Homo sapiens, UniProt P00750); assay: Serine protease inhibition, t-PA (chromogenic substrate), Kass; assay type: biochemical; details: for Enzyme Kass, t-Pa: substrate H-D-Ile-Pro-Arg-p-nitroanilide
T5 construct: purchased American Diagnostics, Greenwich, Conn
Procedure: as §1, §2, §3, §4

Human Plasma [4] = assay: Anticoagulation in human plasma, prothrombin time (PT); assay type: biochemical; details: concentration required to double the PT
Procedure: as §5

Human Plasma [5] = assay: Anticoagulation in human plasma, thrombin time (TT); assay type: biochemical; details: concentration required to double the thrombin time
Procedure: as §5

T2 sequence (P00742 235-488 limits assumed): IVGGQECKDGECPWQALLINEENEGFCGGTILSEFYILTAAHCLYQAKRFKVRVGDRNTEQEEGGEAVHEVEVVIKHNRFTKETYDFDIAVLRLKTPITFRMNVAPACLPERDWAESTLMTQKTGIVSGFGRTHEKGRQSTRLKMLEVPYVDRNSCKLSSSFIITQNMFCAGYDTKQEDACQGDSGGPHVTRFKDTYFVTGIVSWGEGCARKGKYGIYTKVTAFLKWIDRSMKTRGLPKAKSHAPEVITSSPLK
T2 sequence (P00742 41-179 partner limits assumed): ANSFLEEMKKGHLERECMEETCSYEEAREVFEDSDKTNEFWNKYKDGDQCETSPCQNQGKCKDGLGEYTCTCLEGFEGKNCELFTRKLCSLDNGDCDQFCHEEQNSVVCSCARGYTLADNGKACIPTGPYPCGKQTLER
T1 sequence (P00747 581-810 limits assumed): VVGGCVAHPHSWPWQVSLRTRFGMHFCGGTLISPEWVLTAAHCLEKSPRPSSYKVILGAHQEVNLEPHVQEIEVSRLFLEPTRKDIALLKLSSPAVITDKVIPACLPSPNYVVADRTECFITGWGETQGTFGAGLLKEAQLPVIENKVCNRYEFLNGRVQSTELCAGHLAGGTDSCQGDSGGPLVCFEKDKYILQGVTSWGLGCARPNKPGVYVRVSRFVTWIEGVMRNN
T1 sequence (P00747 97-580 partner limits assumed): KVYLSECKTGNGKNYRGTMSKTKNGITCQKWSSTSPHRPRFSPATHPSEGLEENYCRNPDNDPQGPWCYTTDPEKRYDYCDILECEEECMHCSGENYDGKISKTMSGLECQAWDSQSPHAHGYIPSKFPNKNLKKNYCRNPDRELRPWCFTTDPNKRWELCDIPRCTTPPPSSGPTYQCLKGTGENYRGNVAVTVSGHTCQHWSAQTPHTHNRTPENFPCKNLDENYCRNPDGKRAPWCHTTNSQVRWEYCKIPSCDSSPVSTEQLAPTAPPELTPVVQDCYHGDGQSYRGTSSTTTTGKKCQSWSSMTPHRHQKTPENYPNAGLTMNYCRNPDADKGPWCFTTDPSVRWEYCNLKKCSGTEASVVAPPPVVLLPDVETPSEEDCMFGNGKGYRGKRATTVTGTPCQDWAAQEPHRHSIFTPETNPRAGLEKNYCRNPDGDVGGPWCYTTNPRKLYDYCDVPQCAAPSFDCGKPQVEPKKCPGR
T5 sequence (P00750 36-562): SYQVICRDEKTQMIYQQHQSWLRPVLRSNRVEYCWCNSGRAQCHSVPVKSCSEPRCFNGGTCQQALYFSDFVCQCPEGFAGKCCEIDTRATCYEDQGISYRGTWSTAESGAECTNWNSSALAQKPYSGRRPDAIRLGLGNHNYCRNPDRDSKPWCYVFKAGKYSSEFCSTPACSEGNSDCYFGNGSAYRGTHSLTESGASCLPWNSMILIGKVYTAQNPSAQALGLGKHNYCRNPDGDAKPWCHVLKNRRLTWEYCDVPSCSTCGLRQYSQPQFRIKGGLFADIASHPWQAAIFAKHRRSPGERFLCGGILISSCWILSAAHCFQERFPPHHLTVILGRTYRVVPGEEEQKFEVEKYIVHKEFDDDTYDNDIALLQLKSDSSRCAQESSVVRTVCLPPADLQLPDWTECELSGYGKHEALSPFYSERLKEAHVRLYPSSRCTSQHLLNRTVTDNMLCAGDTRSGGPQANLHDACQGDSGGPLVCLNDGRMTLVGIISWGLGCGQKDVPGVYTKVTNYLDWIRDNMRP

| Structure (SMILES) | Enzyme Kass, Plasmin (Human plasmin) [L/mol × 10^6] | Enzyme Kass, Xa (factor Xa) [L/mol × 10^6] | Index of Bioavailability, % Relative Activity [1] [%] | Enzyme Kass, Human Thrombin (human thrombin) | 2 × Clotting time, APTT (Human Plasma [2]) | Enzyme Kass, Trypsin (Bovine trypsin) [L/mol × 10^6] | Enzyme Kass, t-Pa [3] [L/mol × 10^6] | 2 × Clotting time, PT (Human Plasma [4]) | 2 × Clotting time, TT (Human Plasma [5]) [ng/mL] | t-Pa inhibition ([3]; at 13 μg/mL) [%] |
| --- | --- | --- | --- | --- | --- | --- | --- | --- | --- | --- |
| CCOC(=O)N[C@H](Cc1ccccc1)C(=O)N1CCC[C@H]1C(=O)N[C@H](C=O)CCCNC(=N)N.Cl [Example 33, EtOCO-D-Phe-Pro-Arg-H.HCl] | 16 | 2.3 | 14 | 170 L/mol × 10^6 | 390 ng/mL | 240 | 2.5 | 2,000 ng/ML | 22 |  |
| CN(C)S(=O)(=O)N[C@H](Cc1ccccc1)C(=O)N1CCC[C@H]1C(=O)N[C@H](C=O)CCCNC(=N)N.Cl [Example 12, Me2 NSO2 -D-Phe-Pro-Arg-H.HCl] | 21 | 3.9 | 26 | 300 L/mol × 10^6 | 360 ng/mL | 160 |  | 480 ng/mL | 46 | 100 |
| CC(C)S(=O)(=O)N[C@H](Cc1ccccc1)C(=O)N1CCC[C@H]1C(=O)N[C@H](C=O)CCCNC(=N)N.Cl [Example 11, i-Pr-SO2 -D-Phe-Pro-Arg-H-HCl] | 25 | 6.0 | 10 | 460 L/mol × 10^6 | 270 ng/mL | 260 | 3.5 | 510 ng/mL | 13 |  |
| Cl.Cn1c(C(=O)NC(Cc2ccccc2)C(=O)N2CCCC2C(=O)NC(C=O)CCCN=C(N)N)cc2ccccc21 [Example 1, NMI-D-Phe-Pro-Arg-H.HCl] | 7.9 | 0.51 | 2 | 850 L/mol × 10^6 | 440 ng/mL | 120 | 31 | 870 ng/mL | 43 |  |
| Cl.N=C(N)NCCC[C@@H](C=O)NC(=O)[C@@H]1CCCN1C(=O)[C@@H](Cc1ccccc1)NC(=O)c1cccnc1 [Example 3, N-Nicotinoyl-D-Phe-Pro-Arg-H.HCl] | 0.41 | 0.080 | 3 | 58 L/mol × 10^6 | 1,300 ng/ML | 12 | 0.17 | 1,700 ng/ML | 47 |  |
| Cl.N=C(N)NCCC[C@@H](C=O)NC(=O)[C@@H]1CCCN1C(=O)[C@@H](Cc1ccccc1)NS(=O)(=O)c1ccccc1 [Example 13, PhSO2 -D-Phe-Pro-Arg-H.HCl] | 19 | 3.6 | 3 | 270 L/mol × 10^6 | 450 ng/mL | 180 | 2.3 | 930 ng/mL | 14 |  |
| Cl.N=C(N)NCCC[C@@H](C=O)NC(=O)[C@@H]1CCCN1C(=O)[C@@H](Cc1ccccc1)NS(=O)(=O)c1ccc(C(=O)O)cc1 [Example 18, 4-(HO2 C)-C6 H4 SO2 -D-Phe-Pro-Arg-H.HCl] | 7.0 | 2.0 | 13 | 70 L/mol × 10^6 | 1,200 ng/ML | 43 | 1.1 | 3,000 ng/ML | 120 |  |
| CCCS(=O)(=O)N[C@H](Cc1ccccc1)C(=O)N1CCC[C@H]1C(=O)N[C@H](C=O)CCCNC(=N)N.Cl [Example 9, n-Pr-SO2 -D-Phe-Pro-Arg-H.HCl] | 29 | 13 | 14 | 1,700 L/mol × 10^6 | 220 ng/mL | 480 | 2.8 | 510 ng/mL | 6 |  |
| CCCCS(=O)(=O)N[C@H](Cc1ccccc1)C(=O)N1CCC[C@H]1C(=O)N[C@H](C=O)CCCNC(=N)N.Cl [Example 10, n-Bu-SO2 -D-Phe-Pro-Arg-H.HCl] | 27 | 8.3 | 18 | 470 L/mol × 10^6 | 300 ng/mL | 230 | 0.83 | 700 ng/mL | 18 |  |
